Data published in US20210315816A1, “ANTIMICROBIAL COMPOSITIONS AND METHODS” (BOARD OF REGENTS OF THE UNIVERSITY OF NEBRASKA, priority 2018, published 2021).

Key:
[1] = system: S. aureus; conditions: 10 mg/kg, cited from earlier work
[2] = system: S. aureus; assay: S. aureus biofilm formation in 96-well plates ± oligomycin; format: cell-based; conditions: 10 μg/mL
Method: C57BL/6NCrl mice received intra-articular injections of oligomycin at 7 day post-infection (100 ng), or two sequential doses at days 7 and 8 post-infection (50 ng/day), or PBS and were sacrificed at day 14 post-infection. Bacterial burdens were quantified from the surrounding soft tissue, knee, femur, and implant. Results are from one experiment (n=5 mice/group/time point); (*, p<0.05; one-way ANOVA). Additionally, S. aureus biofilm formation was assessed in 96-well plates±oligomycin treatment (bottom graphs). Oligomycin (10 μg/mL) was added to planktonic S. aureus at time 0 (left panel) or mature biofilms for 4 days (right panel) to determine effects on bacterial growth at the indicated time points following oligomycin treatment. Cultures were replenished daily with fresh medium containing oligomycin. Results are presented as Log10 colony forming units (CFU) per well (mean±SD).

[3] = system: bone marrow-derived macrophages; assay: IL-4 pre-treated bone marrow-derived macrophages with oligomycin: TNF-α, arginase, protein yield
Method: Bone marrow-derived macrophages were plated overnight and the following day cells were pre-treated with IL-4 (10 ng/mL) for 1 hour followed by various concentrations of oligomycin for 24 hours, whereupon TNF-α (FIG. 2A) and arginase (FIG. 2B) expression was determined by ELISA and enzymatic assay, respectively. Data are presented as the mean±SD combined from two independent experiments (n=6 biological replicates) (*, p<0.05; **, p<0.01; ***, p<0.001; Student's t-test).
Macrophages were expanded from the bone marrow of both male and female C57BL/6NCrl mice as described (Yamada, et al. (2018) Infect. Immun., 86(7) e00206-18). At day in vitro 6, macrophages were harvested and seeded at 5×10^4 cells/well in a 96-well plate. Following an overnight adherence period, macrophages were pre-treated with 10 ng/mL recombinant mouse (rm)IL-4 (Cat #574306 BioLegend, San Diego, Calif.) for 1 hour followed by exposure to various concentrations of oligomycin (Cat #11342 Cayman Chemical) for 24 hours, whereupon medium was collected to quantify TNF-α by cytometric bead array (Cat #552364, BD Biosciences) and arginase activity (Cat #MAK112, Millipore Sigma).

[4] = system: biofilm-associated monocytes; assay: JC-1 and 2-NBDG staining of biofilm-associated monocytes (OxPhos, glycolysis); format: in vivo, mouse; conditions: days 3 or 7 after intra-articular injection at day 7 post-infection; oligomycin 100 ng
Method: C57BL/6NCrl mice received a single intra-articular injection of free oligomycin only (Oligo; 100 ng), empty nanoparticles (CT), empty nanoparticles (CT)+free oligomycin (100 ng; not loaded), or oligomycin loaded nanoparticles (CTO) at day 7 post-infection and were analyzed at day 3 (FIG. 12A, 12B; 5 mice/group) or 7 (FIGS. 12C, 12D; 9-10 mice/group) after treatment. FIGS. 12A, 12C: OxPhos was calculated as the ratio of […] monocytes (CD11b^highLy6G^−Ly6C^+F4/80^−) following JC-1 staining and glycolytic activity was calculated as the percentage of 2-NBDG+ monocytes. FIGS. 12B, 12D: Bacterial burdens were assessed in the surrounding soft tissue, knee, femur, and implant, where the dotted lines represent the limit of detection (LOD). All results are reported as the mean±SD (*, p<0.05; **, p<0.01; ***, p<0.001; ****, p<0.0001; One-way ANOVA).
Leukocytes recovered from animals with sterile or S. aureus infected orthopedic implants were stained with the bi-potential dye JC-1 (5,5′,6,6′-Tetrachloro-1,1′,3,3′-tetraethylbenzimidazolocarbocyanine iodide; Cat #T3168 Invitrogen) or the fluorescent glucose analog 2-NBDG (2-(N-(7-Nitrobenz-2-oxa-1,3-diazol-4-yl)Amino)-2-Deoxyglucose; Cat #N13195 ThermoFisher) to evaluate OxPhos and glycolytic activity, respectively. JC-1 emits red fluorescence in mitochondria with large membrane potentials and green fluorescence in depolarized mitochondria. […]

[5] = system: S. aureus USA300 LAC13c; assay: Mouse model of S. aureus orthopedic implant biofilm infection, bacterial burdens; format: in vivo
Method: To model infectious complications that can arise in patients following arthroplasty, a mouse model of S. aureus orthopedic implant infection was used (Heim, et al. (2014) Methods Mol. Biol., 1106:183-191; Heim, et al. (2015) J. Leukoc. Biol., 98:1003-1013; Heim, et al. (2014) J. Immunol., 192:3778-3792; Heim, et al. (2015) J. Immunol., 194:3861-3872; Scherr, et al. (2014) Methods Mol. Biol., 1106:173-181). […] Briefly, mice were anesthetized with ketamine/xylazine (100 mg/kg and 5 mg/kg, respectively) and the surgical site was disinfected with povidone-iodine. After a surgical plane of anesthesia was achieved, a medial incision was created through the quadriceps with lateral displacement to access the distal femur. […]
Animals were placed in an induction chamber without restraint and anesthetized with 2.5% isoflurane. […] Nanoparticle injection and length of retention was evaluated in the same cohort of mice using an In Vivo Imaging System (IVIS® Spectrum; PerkinElmer, Waltham, Mass.) under isoflurane anesthesia, with excitation and emission wavelengths of 640 nm and 680 nm, respectively. […]

[6] = IL-4 10 ng/mL 1 hour, then oligomycin 24 hours, dose-dependent

Structure (SMILES)	S. aureus titers in the joint [1]	S. aureus burdens on orthopedic implants ([1]; near the limit of detection)	bactericidal activity during early biofilm formation or mature biofilms in vitro [2]	toxicity to macrophages (protein yields) [3]	TNF-α expression [3, 6]	arginase activity [3, 6]	monocyte OxPhos activity (JC-1) [4]	biofilm burdens ([5]; days 3 or 7 after intra-articular injection, oligomycin 100 ng)	bacterial burdens ([5]; direct intra-articular injection, one bolus (100 ng) or two sequential doses (50 ng/day), day 14 post-infection)
CCCCCCCCCC(=O)N[C@@H](Cc1c[nH]c2ccccc12)C(=O)N[C@H](CC(N)=O)C(=O)N[C@@H](CC(=O)O)C(=O)N[C@@H]1C(=O)NCC(=O)N[C@@H](CCCN)C(=O)N[C@@H](CC(=O)O)C(=O)N[C@H](C)C(=O)N[C@@H](CC(=O)O)C(=O)NCC(=O)N[C@H](CO)C(=O)N[C@@H]([C@H](C)CC(=O)O)C(=O)N[C@@H](CC(=O)c2ccccc2N)C(=O)O[C@@H]1C [daptomycin]	less affected	< 10^2 CFU							
CC[C@H]1/C=C/C=C/C[C@@H](C)[C@H](O)[C@@](C)(O)C(=O)[C@@H](C)[C@H](O)[C@@H](C)C(=O)[C@@H](C)[C@H](O)[C@@H](C)/C=C/C(=O)O[C@@H]2[C@H](C)[C@H](CC1)O[C@]1(CC[C@H](C)[C@H](C[C@@H](C)O)O1)[C@H]2C [oligomycin]			no bactericidal activity	not toxic to macrophages	increasing TNF-α expression	decreasing arginase activity	no changes	no changes	no effect on bacterial burdens
